Here are results for 29 molecules from patent US20230312587A1, “PTERIDINONE COMPOUNDS AND USES THEREOF” (Vertex Pharmaceutical Incorporated, priority 2018, published 2023).

Some results are limits rather than exact numbers.

In this assay the test system is β-catenin-TCF-mediated reporter transcription activity in Colo 205 cells. Put plainly: Colo 205 reporter assay (TCF/LEF luciferase). The assay is classed as cell-based. As to conditions: Homo sapiens, COLO 205, 5 h, Colo 205 TCF/LEF luciferase reporter, five hours after addition of compound; read-out: TCF reporter Colo205 IC50. An outline of the steps:
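Luciferase signal from a TCF/LEF-driven reporter, stably integrated in Colo 205 colon cancer cells, was measured 5 h after compound addition.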

One may read the IC50 as the concentration at which inhibition is half-maximal. On to `CCn1ccnc1Cn1cc(CNc2nc(C)c3c(n2)N(C)[C@@H](C)C(=O)N3)cn1` [Compound 191, (7S)-2-(((1-((1-ethyl-1H-imidazol-2-yl)methyl)-1H-pyrazol-4-yl)methyl)amino)-4,7,8-trimethyl-7,8-dihydropteridin-6(5H)-one], for which the IC50 was in the range of 1000 to 5000 nM.

Consider `Cc1nc(Cn2cc(CNc3nc(C)c4c(n3)N(C)[C@@H](C)C(=O)N4)cn2)c(C)o1` [Compound 193, (7S)-2-(((1-((2,5-dimethyloxazol-4-yl)methyl)-1H-pyrazol-4-yl)methyl)amino)-4,7,8-trimethyl-7,8-dihydropteridin-6(5H)-one], for which the IC50 was 300 to 1000 nM. For `Cc1nc(NCc2cnn(Cc3ccc(Cl)nc3)c2)nc2c1NC(=O)[C@H](C)N2C` [Compound 194, (7S)-2-(((1-((6-chloropyridin-3-yl)methyl)-1H-pyrazol-4-yl)methyl)amino)-4,7,8-trimethyl-7,8-dihydropteridin-6(5H)-one], the 50% inhibitory concentration (IC50) was under 300 nM.

In the case of `C[C@H]1C(=O)Nc2cnc(NCc3cnn(Cc4ccc(C(F)(F)F)nc4)c3)nc2N1C` [Compound 195, (7S)-7,8-dimethyl-2-(((1-((6-(trifluoromethyl)pyridin-3-yl)methyl)-1H-pyrazol-4-yl)methyl)amino)-7,8-dihydropteridin-6(5H)-one], the concentration for half-maximal inhibition (IC50) is 300 to 1000 nM. With `Cc1nc(NCc2cnn(Cc3ccc(N(C)C)nc3)c2)nc2c1NC(=O)[C@H](C)N2C` [Compound 196, (7S)-2-(((1-((6-(dimethylamino)pyridin-3-yl)methyl)-1H-pyrazol-4-yl)methyl)amino)-4,7,8-trimethyl-7,8-dihydropteridin-6(5H)-one] the figure was 300 to 1000 nM. As for `COc1ccc(Cn2cc(CNc3nc(C)c4c(n3)N(C)[C@@H](C)C(=O)N4)cn2)cn1` [Compound 197, (7S)-2-(((1-((6-methoxypyridin-3-yl)methyl)-1H-pyrazol-4-yl)methyl)amino)-4,7,8-trimethyl-7,8-dihydropteridin-6(5H)-one], the concentration for half-maximal inhibition (IC50) is under 300 nM. As for `Cc1nc(NCc2cnn(Cc3cccnc3)c2)nc2c1NC(=O)[C@H](C)N2C` [Compound 198, (7S)-4,7,8-trimethyl-2-(((1-(pyridin-3-ylmethyl)-1H-pyrazol-4-yl)methyl)amino)-7,8-dihydropteridin-6(5H)-one], the half-maximal inhibitory concentration (IC50) was 1000 to 5000 nM.

Take `Cc1cc(Cn2cc(CNc3nc(C)c4c(n3)N(C)[C@@H](C)C(=O)N4)cn2)cnc1C(F)(F)F` [Compound 199, (7S)-4,7,8-trimethyl-2-(((1-((5-methyl-6-(trifluoromethyl)pyridin-3-yl)methyl)-1H-pyrazol-4-yl)methyl)amino)-7,8-dihydropteridin-6(5H)-one]: the IC50 is under 300 nM. As to `Cc1nc(NCc2cnn(Cc3ccc(C(F)(F)F)cn3)c2)nc2c1NC(=O)[C@H](C)N2C` [Compound 200, (7S)-4,7,8-trimethyl-2-(((1-((5-(trifluoromethyl)pyridin-2-yl)methyl)-1H-pyrazol-4-yl)methyl)amino)-7,8-dihydropteridin-6(5H)-one], the IC50 was 300 to 1000 nM.

Take `Cc1nc(NCc2cnn(Cc3cc(C(F)(F)F)ccn3)c2)nc2c1NC(=O)[C@H](C)N2C` [Compound 201, (7S)-4,7,8-trimethyl-2-(((1-((4-(trifluoromethyl)pyridin-2-yl)methyl)-1H-pyrazol-4-yl)methyl)amino)-7,8-dihydropteridin-6(5H)-one]: the half-inhibitory concentration (IC50) lay within 300 to 1000 nM. To `Cc1nc(NCc2cnn(Cc3ccnc(O)c3)c2)nc2c1NC(=O)[C@H](C)N2C` [Compound 202, (7S)-2-(((1-((2-hydroxypyridin-4-yl)methyl)-1H-pyrazol-4-yl)methyl)amino)-4,7,8-trimethyl-7,8-dihydropteridin-6(5H)-one] belongs at least 5000 nM. Take `COc1cc(Cn2cc(CNc3nc(C)c4c(n3)N(C)[C@@H](C)C(=O)N4)cn2)ccn1` [Compound 203, (7S)-2-(((1-((2-methoxypyridin-4-yl)methyl)-1H-pyrazol-4-yl)methyl)amino)-4,7,8-trimethyl-7,8-dihydropteridin-6(5H)-one]: the IC50 was under 300 nM. With `Cc1nc(NCc2cnn(Cc3ccnc(C#N)c3)c2)nc2c1NC(=O)[C@H](C)N2C` [Compound 204, (7S)-4-((4-(((4,7,8-trimethyl-6-oxo-5,6,7,8-tetrahydropteridin-2-yl)amino)methyl)-1H-pyrazol-1-yl)methyl)picolinonitrile] the figure was at least 5000 nM; with `Cc1cc(F)ncc1Cn1cc(CNc2nc(C)c3c(n2)N(C)[C@@H](C)C(=O)N3C)cn1` [Compound 205, (7S)-2-(((1-((6-fluoro-4-methylpyridin-3-yl)methyl)-1H-pyrazol-4-yl)methyl)amino)-4,5,7,8-tetramethyl-7,8-dihydropteridin-6(5H)-one], 300 to 1000 nM. Consider `Cc1nc(NCc2cnn(Cc3cncc(C(F)(F)F)c3)c2)nc2c1NC(=O)[C@H](C)N2C` [Compound 206, (7S)-4,7,8-trimethyl-2-(((1-((5-(trifluoromethyl)pyridin-3-yl)methyl)-1H-pyrazol-4-yl)methyl)amino)-7,8-dihydropteridin-6(5H)-one], for which the half-maximal inhibitory concentration (IC50) was under 300 nM.

In the case of `Cc1nc(NCc2cnn(Cc3cncc(F)c3)c2)nc2c1NC(=O)[C@H](C)N2C` [Compound 208, (7S)-2-(((1-((5-fluoropyridin-3-yl)methyl)-1H-pyrazol-4-yl)methyl)amino)-4,7,8-trimethyl-7,8-dihydropteridin-6(5H)-one], the IC50 is under 300 nM. To `Cc1nc(NCc2cnn(Cc3cnc(C(F)(F)F)c(F)c3)c2)nc2c1NC(=O)[C@H](C)N2C` [Compound 209, (7S)-2-(((1-((5-fluoro-6-(trifluoromethyl)pyridin-3-yl)methyl)-1H-pyrazol-4-yl)methyl)amino)-4,7,8-trimethyl-7,8-dihydropteridin-6(5H)-one] belongs under 300 nM.

Take `COc1cc(C(F)(F)F)ncc1Cn1cc(CNc2nc(C)c3c(n2)N(C)[C@@H](C)C(=O)N3)cn1` [Compound 210, (7S)-2-(((1-((4-methoxy-6-(trifluoromethyl)pyridin-3-yl)methyl)-1H-pyrazol-4-yl)methyl)amino)-4,7,8-trimethyl-7,8-dihydropteridin-6(5H)-one]: the IC50 is under 300 nM. In the case of `Cc1nc(NCc2cnn(Cc3ccc(C(C)(C)C)nc3)c2)nc2c1NC(=O)[C@H](C)N2C` [Compound 211, (7S)-2-(((1-((6-(tert-butyl)pyridin-3-yl)methyl)-1H-pyrazol-4-yl)methyl)amino)-4,7,8-trimethyl-7,8-dihydropteridin-6(5H)-one], the 50% inhibitory concentration (IC50) was 300 to 1000 nM. With `Cc1nn(Cc2ccc(C(F)(F)F)nc2)c(C)c1CNc1nc(C)c2c(n1)N(C)[C@@H](C)C(=O)N2` [Compound 212, (7S)-2-(((3,5-Dimethyl-1-((6-(trifluoromethyl)pyridin-3-yl)methyl)-1H-pyrazol-4-yl)methyl)amino)-4,7,8-trimethyl-7,8-dihydropteridin-6(5H)-one] the figure was at least 5000 nM; with `COc1cc(Cn2cc(CNc3nc(C)c4c(n3)N(C)[C@@H](C)C(=O)N4)cn2)cnc1C(F)(F)F` [Compound 213, (7S)-2-(((1-((5-methoxy-6-(trifluoromethyl)pyridin-3-yl)methyl)-1H-pyrazol-4-yl)methyl)amino)-4,7,8-trimethyl-7,8-dihydropteridin-6(5H)-one], under 300 nM; with `COc1ncc(Cn2cc(CNc3nc(C)c4c(n3)N(C)[C@@H](C)C(=O)N4)cn2)cc1C(F)(F)F` [Compound 215, (7S)-2-(((1-((6-methoxy-5-(trifluoromethyl)pyridin-3-yl)methyl)-1H-pyrazol-4-yl)methyl)amino)-4,7,8-trimethyl-7,8-dihydropteridin-6(5H)-one], under 300 nM. With `Cc1nc(N[C@H](C)c2cnn(Cc3ccc(C(F)(F)F)nc3)c2)nc2c1NC(=O)[C@H](C)N2C` [Compound 217, (7S)-4,7,8-Trimethyl-2-(((R)-1-(1-((6-(trifluoromethyl)pyridin-3-yl)methyl)-1H-pyrazol-4-yl)ethyl)amino)-7,8-dihydropteridin-6(5H)-one] the figure was at least 5000 nM; with `COc1nc(C(F)(F)F)ccc1Cn1cc(CNc2nc(C)c3c(n2)N(C)[C@@H](C)C(=O)N3)cn1` [Compound 218, (7S)-2-(((1-((2-methoxy-6-(trifluoromethyl)pyridin-3-yl)methyl)-1H-pyrazol-4-yl)methyl)amino)-4,7,8-trimethyl-7,8-dihydropteridin-6(5H)-one], under 300 nM. Take `Cc1nc(NCc2cnn(C[C@@H]3CCCN3c3cc(F)cc(F)c3)c2)nc2c1NC(=O)[C@H](C)N2C` [Compound 219, (7S)-2-(((1-(((S)-1-(3,5-difluorophenyl)pyrrolidin-2-yl)methyl)-1H-pyrazol-4-yl)methyl)amino)-4,7,8-trimethyl-7,8-dihydropteridin-6(5H)-one]: the IC50 was under 300 nM. Take `CCC[C@H]1C(=O)Nc2c(C)nc(NCc3cnn(Cc4ccc(C(F)(F)F)nc4)c3)nc2N1C` [Compound 220, (7S)-4,8-dimethyl-7-propyl-2-(((1-((6-(trifluoromethyl)pyridin-3-yl)methyl)-1H-pyrazol-4-yl)methyl)amino)-7,8-dihydropteridin-6(5H)-one]: the IC50 was under 300 nM. To `CN1C(=O)C(C)(C)Nc2nc(NCc3cnn(Cc4ccc(F)cc4)c3)ncc21` [Compound 225, 2-(((1-(4-Fluorobenzyl)-1H-pyrazol-4-yl)methyl)amino)-5,7,7-trimethyl-7,8-dihydropteridin-6(5H)-one] belongs at least 5000 nM; to `CN1C(=O)C2(CC2)N(C)c2nc(NCc3cnn(Cc4ccc(F)cc4)c3)ncc21` [Compound 227, 2′-(((1-(4-fluorobenzyl)-1H-pyrazol-4-yl)methyl)amino)-5′,8′-dimethyl-5′,8′-dihydro-6′H-spiro[cyclopropane-1,7′-pteridin]-6′-one], 300 to 1000 nM. In the case of `CN1C(=O)C2(COC2)N(C)c2nc(NCc3cnn(Cc4ccc(F)cc4)c3)ncc21` [Compound 228, 2′-(((1-(4-fluorobenzyl)-1H-pyrazol-4-yl)methyl)amino)-5′,8′-dimethyl-5′,8′-dihydro-6′H-spiro[oxetane-3,7′-pteridin]-6′-one], the half-inhibitory concentration (IC50) fell in the range of 1000 to 5000 nM.
